17 molecules from patent US20130035326A1 (AMBIT BIOSCIENCES CORPORATION, priority 2009, published 2013) can be followed below.

One assay has as its target T1, CSF-1R kinase (Homo sapiens, UniProt P07333).
T1 construct: made in house; host or cells: T7 phage display or HEK-293 cells
The assay is described as follows: Competition binding assay, CSF-1R Kd. Summed up: (§1)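 Kinases, either T7 phage fusions or HEK-293-expressed and DNA-tagged, competed for immobilised biotinylated affinity ligand against test compound, 1 h at RT in binding buffer with 6 mM DTT. Bound kinase eluted with 0.5 μM free ligand and quantified by qPCR; Kd from 11-point threefold dilutions.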

Assay [1] deals with kinase panel containing either 359 or 386 distinct kinases. The assay can be described thus: Selectivity score S10 from competition binding against a panel of kinases. As to conditions: compounds at 10 μM; for Kinase specificty: S(10)-386 panel: panel of 386 distinct kinases; for Kinase specificty: S(10)-359 panel: panel of 359 distinct kinases. Put shortly:
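Compounds were tested at 10 μM in competition binding against T7 phage-fused or HEK-293-expressed DNA-tagged kinases with immobilized affinity ligands, 1 h at room temperature. Bound kinase was quantified by qPCR as percent of DMSO control; S10 is the fraction of distinct kinases (mutants excluded) with POC below 10.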

The next assay deals with T2, FLT3 kinase (Homo sapiens, UniProt P36888).
T2 construct: made in house; host or cells: T7 phage display or HEK-293 cells
T2 sequence (P36888 27-993): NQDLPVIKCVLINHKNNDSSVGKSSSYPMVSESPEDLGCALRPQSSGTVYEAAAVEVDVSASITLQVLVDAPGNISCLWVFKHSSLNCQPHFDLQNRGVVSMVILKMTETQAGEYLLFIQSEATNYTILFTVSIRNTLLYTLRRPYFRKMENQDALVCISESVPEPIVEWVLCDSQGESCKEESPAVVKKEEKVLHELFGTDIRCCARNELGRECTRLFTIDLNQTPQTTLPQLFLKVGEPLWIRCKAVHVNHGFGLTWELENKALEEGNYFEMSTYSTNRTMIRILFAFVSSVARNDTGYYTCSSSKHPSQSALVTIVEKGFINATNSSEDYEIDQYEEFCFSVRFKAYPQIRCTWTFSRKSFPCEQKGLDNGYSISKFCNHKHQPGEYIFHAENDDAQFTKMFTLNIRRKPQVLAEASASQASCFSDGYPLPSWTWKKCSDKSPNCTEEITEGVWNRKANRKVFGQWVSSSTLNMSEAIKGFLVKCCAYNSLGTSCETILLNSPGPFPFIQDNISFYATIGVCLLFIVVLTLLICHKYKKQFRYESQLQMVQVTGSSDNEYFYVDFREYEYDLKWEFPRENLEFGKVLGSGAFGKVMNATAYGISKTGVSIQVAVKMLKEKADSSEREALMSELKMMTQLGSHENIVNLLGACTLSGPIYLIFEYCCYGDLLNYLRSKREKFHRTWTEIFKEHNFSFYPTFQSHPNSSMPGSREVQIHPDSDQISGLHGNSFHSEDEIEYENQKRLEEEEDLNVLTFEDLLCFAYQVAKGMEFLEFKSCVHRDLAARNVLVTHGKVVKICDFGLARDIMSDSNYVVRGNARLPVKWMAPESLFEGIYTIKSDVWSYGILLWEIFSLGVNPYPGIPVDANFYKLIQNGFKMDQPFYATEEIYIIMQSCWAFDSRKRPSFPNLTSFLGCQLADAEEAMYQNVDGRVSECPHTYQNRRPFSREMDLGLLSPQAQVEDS
The assay is described as follows: Competition binding assay, FLT3 Kd. Put shortly:
as §1

A further assay deals with T3, KIT kinase (Homo sapiens, UniProt P10721).
T3 construct: made in house; host or cells: T7 phage display or HEK-293 cells
The assay can be described thus: Competition binding assay, KIT Kd. Summed up: as §1

In the next assay the test system is MV4-11 cells. The assay is described as follows: MV4-11 cell proliferation assay (Alamar Blue). The class given is cell-based. As to conditions: Homo sapiens, MV4-11, 72 h, 3 days incubation. Summed up: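 Viability readout: Alamar Blue fluorescence, ex 560/em 590 nm, 3 h after reagent addition, after 3-day exposure of 64,000 MV4-11 cells per well to a 9-point half-log compound series in 0.5% FBS Iscove's. IC50 from duplicate averages, as 50% proliferation inhibition relative to negative control.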

“And” between values parts separate entries of the source, which are not always exact repeats. Equal entries are not always repeated.

T3 sequence (P10721 26-976): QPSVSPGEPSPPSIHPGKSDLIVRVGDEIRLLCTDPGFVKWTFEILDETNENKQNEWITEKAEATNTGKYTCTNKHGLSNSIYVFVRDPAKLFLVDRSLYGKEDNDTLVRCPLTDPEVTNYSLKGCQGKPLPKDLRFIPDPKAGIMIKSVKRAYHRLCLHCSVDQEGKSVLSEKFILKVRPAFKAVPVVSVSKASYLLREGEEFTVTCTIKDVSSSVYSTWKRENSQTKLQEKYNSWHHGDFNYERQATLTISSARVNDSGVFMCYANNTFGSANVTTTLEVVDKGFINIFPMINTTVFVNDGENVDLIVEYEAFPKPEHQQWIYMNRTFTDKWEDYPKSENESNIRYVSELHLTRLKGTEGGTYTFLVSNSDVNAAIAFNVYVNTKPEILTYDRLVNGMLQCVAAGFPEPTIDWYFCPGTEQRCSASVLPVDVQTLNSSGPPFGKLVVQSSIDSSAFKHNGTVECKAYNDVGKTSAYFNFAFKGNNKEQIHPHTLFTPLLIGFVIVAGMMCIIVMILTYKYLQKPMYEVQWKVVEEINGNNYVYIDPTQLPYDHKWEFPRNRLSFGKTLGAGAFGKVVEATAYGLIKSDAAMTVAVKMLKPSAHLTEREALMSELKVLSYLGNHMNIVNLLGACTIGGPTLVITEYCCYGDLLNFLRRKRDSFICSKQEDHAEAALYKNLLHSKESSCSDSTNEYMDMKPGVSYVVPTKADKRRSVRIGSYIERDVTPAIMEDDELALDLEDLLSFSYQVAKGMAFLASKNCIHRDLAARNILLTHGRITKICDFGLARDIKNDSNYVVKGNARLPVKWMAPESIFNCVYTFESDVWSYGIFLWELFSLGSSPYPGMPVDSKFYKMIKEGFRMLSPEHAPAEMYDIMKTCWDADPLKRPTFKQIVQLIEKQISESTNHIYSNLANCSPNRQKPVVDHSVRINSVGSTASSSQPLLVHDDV
T1 sequence (P07333 20-972): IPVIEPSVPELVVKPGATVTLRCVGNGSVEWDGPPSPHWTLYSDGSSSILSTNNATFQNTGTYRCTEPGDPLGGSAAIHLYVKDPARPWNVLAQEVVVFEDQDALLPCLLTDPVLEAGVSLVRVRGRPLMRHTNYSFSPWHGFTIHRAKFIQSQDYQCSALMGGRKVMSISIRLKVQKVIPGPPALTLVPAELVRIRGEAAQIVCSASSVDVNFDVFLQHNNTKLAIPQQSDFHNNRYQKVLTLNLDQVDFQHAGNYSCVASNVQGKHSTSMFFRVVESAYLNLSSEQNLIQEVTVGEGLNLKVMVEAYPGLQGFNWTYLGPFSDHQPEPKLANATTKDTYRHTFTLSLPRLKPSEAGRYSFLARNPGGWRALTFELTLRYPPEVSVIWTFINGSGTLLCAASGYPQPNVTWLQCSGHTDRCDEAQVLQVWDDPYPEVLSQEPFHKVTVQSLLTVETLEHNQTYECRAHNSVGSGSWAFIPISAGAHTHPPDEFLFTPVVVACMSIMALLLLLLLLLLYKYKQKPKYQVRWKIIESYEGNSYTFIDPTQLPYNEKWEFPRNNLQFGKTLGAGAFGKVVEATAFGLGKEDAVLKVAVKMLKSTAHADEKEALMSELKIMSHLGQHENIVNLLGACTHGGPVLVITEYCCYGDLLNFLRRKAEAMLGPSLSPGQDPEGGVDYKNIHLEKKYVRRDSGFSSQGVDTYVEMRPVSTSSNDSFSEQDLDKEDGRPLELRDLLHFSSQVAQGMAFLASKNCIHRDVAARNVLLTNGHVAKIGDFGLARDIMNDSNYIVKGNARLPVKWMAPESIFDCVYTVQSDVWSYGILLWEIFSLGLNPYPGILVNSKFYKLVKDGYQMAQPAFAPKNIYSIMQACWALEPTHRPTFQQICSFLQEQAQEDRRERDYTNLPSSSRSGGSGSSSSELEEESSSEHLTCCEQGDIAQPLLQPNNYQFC

Take `Nc1ccc(-c2ccc(CC(=O)Nc3cc(C4(C(F)(F)F)CCC4)on3)cc2)c(F)n1` [Example 167]: the Kd at CSF-1R kinase was at most 10 nM; at FLT3 kinase, at most 1 nM; at KIT kinase it was 1 to 10 nM. In addition, the “Kinase specificty: S(10)-386 panel” value in assay [1] is listed as “A (A≦0.1)”. In the assay with MV4-11 cells, the concentration for half-maximal inhibition (IC50) is at most 1 nM.

With `Cc1cc(N)ncc1-c1ccc(NC(=O)Nc2cc(C(C)(C)C)on2)cc1` [Example 24, 1-(4-(6-amino-4-methylpyridin-3-yl)phenyl)-3-(5-tert-butylisoxazol-3-yl)urea], the Kd on CSF-1R kinase was at most 10 nM; on FLT3 kinase, at most 1 nM; at KIT kinase, 1 to 10 nM. In addition, the “Kinase specificty: S(10)-359 panel” value in assay [1] is listed as “A (A≦0.1)”. In the assay with MV4-11 cells, this molecule returned an IC50 of 1 to 10 nM.

On to `CC(=O)O.Nc1ccc(-c2ccc(CC(=O)Nc3cc(C4(CF)CC4)on3)cc2)cn1` [Example 103, 5-(4-(2-((5-(1-(fluoromethyl)cyclopropyl)isoxazol-3-yl)amino)-2-oxoethyl)phenyl)pyridin-2-aminium acetate], for which the Kd at CSF-1R kinase was at most 10 nM; at FLT3 kinase, at most 1 nM; on KIT kinase, at most 1 nM. For the same molecule, in assay [1], the “Kinase specificty: S(10)-386 panel” value is “A (A≦0.1)”. This molecule showed an IC50 with MV4-11 cells of at most 1 nM.

As to `Cc1ccc(F)c(NC(=O)Nc2ccc(-c3cnc(NCCN4CCOCC4)nc3)cc2)c1` [Example 55, 1-(2-fluoro-5-methylphenyl)-3-(4-(2-(2-morpholinoethylamino)pyrimidin-5-yl)phenyl)urea], the dissociation constant Kd was at most 10 nM on CSF-1R kinase, 1 to 10 nM at FLT3 kinase and at most 1 nM on KIT kinase. Further, the “Kinase specificty: S(10)-359 panel” value in assay [1] is on record as “A (A≦0.1)”. Also, the IC50 in the assay on MV4-11 cells was 100 to 500 nM.

For the molecule `CC(C)(C)c1cc(NC(=O)Nc2ccc(-c3ccc(N)nc3)s2)no1` [Example 19, 1-(5-(6-aminopyridin-3-yl)thiophen-2-yl)-3-(5-tert-butylisoxazol-3-yl)urea], the Kd on CSF-1R kinase lay within 10 to 100 nM; at FLT3 kinase it was 1 to 10 nM; on KIT kinase, 1 to 10 nM. Also, the “Kinase specificty: S(10)-359 panel” value in assay [1] is given as “A (A≦0.1)”. The molecule further gave a 50% inhibitory concentration (IC50) in the assay with MV4-11 cells above 500 nM.

As to `COc1nc(N)ccc1-c1ccc(CC(=O)Nc2cc(C(C)(C)C)on2)cc1.CS(=O)(=O)O` [Example 131, 5-(4-(2-(5-tert-butylisoxazol-3-ylamino)-2-oxoethyl)phenyl)-6-methoxypyridin-2-aminium methanesulfonate], the Kd was above 500 nM on CSF-1R kinase, 1 to 10 nM on FLT3 kinase and 10 to 100 nM at KIT kinase. In assay [1], the “Kinase specificty: S(10)-386 panel” value is “A (A≦0.1)”. The molecule also yielded an IC50 with MV4-11 cells of 100 to 500 nM.

For the molecule `CC(C)(C)c1cc(NC(=O)Nc2ccc(-c3cnc(NC4CC4)nc3)cn2)no1` [Example 64, 1-(5-tert-butylisoxazol-3-yl)-3-[5-(2-cyclopropylaminopyrimidin-5-yl)-pyridin-2-yl]-urea], the Kd at CSF-1R kinase was at most 10 nM; at FLT3 kinase, at most 1 nM; on KIT kinase, at most 1 nM. Moreover, the “Kinase specificty: S(10)-359 panel” value in assay [1] is on record as “B (0.1<B≦0.2 nM)”. In the assay with MV4-11 cells, this molecule yielded an IC50 of 10 to 100 nM.

Turning to `CC1(c2cc(NC(=O)Cc3ccc(-c4cnc(N)c(C(F)(F)F)c4)cc3)no2)CC1` [Example 161], the results for the Kd at CSF-1R kinase, at FLT3 kinase and on KIT kinase were at most 10 nM, at most 1 nM and 1 to 10 nM, respectively. Also, in assay [1], the “Kinase specificty: S(10)-386 panel” value is listed as “B (0.1<B≦0.2 nM)”. In addition, the IC50 with MV4-11 cells is at most 1 nM.

On to `CC(C)(C)c1cc(NC(=O)Nc2ccc(-c3cnc(NCCN4CCOCC4)nc3)cc2F)no1` [Example 59], for which the values for the Kd on CSF-1R kinase, on FLT3 kinase and on KIT kinase were at most 10 nM, at most 1 nM and at most 1 nM, respectively. The “Kinase specificty: S(10)-359 panel” value in assay [1] is listed as “B (0.1<B≦0.2 nM)”. In addition, in the assay with MV4-11 cells, the concentration for half-maximal inhibition (IC50) was 1 to 10 nM.

Regarding `CC(C)(C)c1cc(NC(=O)Nc2ccc(-c3cnc4c(c3)COCCN4)cc2)no1` [Example 21, 1-(5-tert-butylisoxazol-3-yl)-3-(4-(1,2,3,5-tetrahydropyrido[2,3-e][1,4]oxazepin-7-yl)phenyl)urea], the dissociation constant (Kd) on CSF-1R kinase was at most 10 nM; at FLT3 kinase, at most 1 nM; on KIT kinase, at most 1 nM. The “Kinase specificty: S(10)-359 panel” value in assay [1] is given as “B (0.1<B≦0.2 nM)”. The molecule further gave an IC50 in the assay on MV4-11 cells of 1 to 10 nM.

Take `Nc1ccc(-c2ccc(CC(=O)Nc3cc(C4(C(F)(F)F)CC4)on3)cc2)cn1` [Example 73, 2-(4-(6-aminopyridin-3-yl)phenyl)-N-(5-(1-(trifluoromethyl)cyclopropyl)isoxazol-3-yl)acetamide]: the dissociation constant Kd was at most 10 nM on CSF-1R kinase, at most 1 nM on FLT3 kinase and 1 to 10 nM on KIT kinase. For the same molecule, in assay [1], the “Kinase specificty: S(10)-386 panel” value is recorded as “A (A≦0.1)”. This molecule returned a concentration for half-maximal inhibition (IC50) in the assay on MV4-11 cells of at most 1 nM.

With `CC1(c2cc(NC(=O)Cc3ccc(-c4ccc(N)nc4F)cc3)no2)COC1` [Example 140, 2-(4-(6-amino-2-fluoropyridin-3-yl)phenyl)-N-(5-(3-methyloxetan-3-yl)isoxazol-3-yl)acetamide], the values for the Kd at CSF-1R kinase, at FLT3 kinase and on KIT kinase were at most 10 nM, at most 1 nM and 1 to 10 nM, respectively. Also, the “Kinase specificty: S(10)-386 panel” value in assay [1] was “A (A≦0.1)”. The 50% inhibitory concentration (IC50) in the assay with MV4-11 cells is 10 to 100 nM.

In the case of `CC(C)(C)c1cc(NC(=O)Nc2ccc(-c3cnc4c(c3)OCC(=O)N4)cc2)no1` [Example 3, 1-(5-tert-butylisoxazol-3-yl)-3-(4-(3-oxo-3,4-dihydro-2H-pyrido[3,2-b][1,4]oxazin-7-yl)phenyl)urea], the equilibrium dissociation constant (Kd) was at most 10 nM at CSF-1R kinase, at most 1 nM on FLT3 kinase and at most 1 nM on KIT kinase. Besides, the “Kinase specificty: S(10)-359 panel” value in assay [1] is listed as “A (A≦0.1)”. Also, the IC50 with MV4-11 cells was at most 1 nM.

As to `CC1(c2cc(NC(=O)Cc3ccc(-c4cnc(N)c(C(F)(F)F)c4)cc3)no2)COC1.CS(=O)(=O)O` [Example 135, 5-(4-(2-((5-(3-methyloxetan-3-yl)isoxazol-3-yl)amino)-2-oxoethyl)phenyl)-3-(trifluoromethyl)pyridin-2-aminium methanesulfonate], the Kd at CSF-1R kinase is at most 10 nM; on FLT3 kinase, at most 1 nM; at KIT kinase, 1 to 10 nM. For the same molecule, the “Kinase specificty: S(10)-386 panel” value in assay [1] was “B (0.1<B≦0.2 nM)”. Besides, the IC50 in the assay on MV4-11 cells was in the range of 1 to 10 nM.

With `CS(=O)(=O)O.Nc1ccc(-c2ccc(CC(=O)Nn3cc(C(F)(F)F)cn3)cc2)cn1` [Example 126, 5-(4-(2-oxo-2-(4-(trifluoromethyl)-1H-pyrazol-1-ylamino)ethyl)phenyl)pyridin-2-aminium methanesulfonate], the Kd at CSF-1R kinase was 10 to 100 nM; at FLT3 kinase it was at most 1 nM; at KIT kinase, 1 to 10 nM. Further, the “Kinase specificty: S(10)-386 panel” value in assay [1] is “A (A≦0.1)”. Further, the IC50 with MV4-11 cells fell in the range of 10 to 100 nM.

As for `CC(C)(C)c1cc(NC(=O)Cc2ccc(-c3ccc(N)nc3)cc2)no1` [Example 18, 2-(4-(6-aminopyridin-3-yl)phenyl)-N-(5-tert-butylisoxazol-3-yl)acetamide], the dissociation constant (Kd) is at most 10 nM on CSF-1R kinase; ≤ 1 nM and 1 to 10 nM on FLT3 kinase; 1 to 10 nM on KIT kinase. In addition, the “Kinase specificty: S(10)-359 panel” value in assay [1] is “A (A≦0.1)”. Moreover, in assay [1], the “Kinase specificty: S(10)-386 panel” value is “A (A≦0.1)”. The molecule also came in with a 50% inhibitory concentration (IC50) in the assay with MV4-11 cells of at most 1 nM.

In the case of `CC1(c2cc(NC(=O)Nc3ccc(-c4ccc(N)nc4)cn3)no2)CC1.CS(=O)(=O)O` [Example 104, 6′-(3-(5-(1-methylcyclopropyl)isoxazol-3-yl)ureido)-3,3′-bipyridin-6-aminium methanesulfonate], the Kd at CSF-1R kinase was at most 10 nM; on FLT3 kinase, at most 1 nM; on KIT kinase it was at most 1 nM. Moreover, the “Kinase specificty: S(10)-386 panel” value in assay [1] is given as “A (A≦0.1)”. The IC50 in the assay on MV4-11 cells lay within 10 to 100 nM.
